This note sets out measurements from article doi:10.1101/2025.04.02.646353v2, “Novel dopaminergic neurotransmission in the Octopus visual system” (biorxiv, 2025).

Usually EC50 stands for the concentration that produces a half-maximal response. A lower EC50 goes with an effect from little substance. The term IC50 denotes the concentration at which inhibition is half-maximal. A low value points to higher potency.

What all share (test): two-electrode voltage clamp, Xenopus oocytes
For orientation: Two-electrode voltage clamp holds a large cell at a set potential and records current.

For test [1], the system named is T1, DopC1 (O. vulgaris).
T1 construct: full-length cDNA cloned from 1-dph O. vulgaris paralarvae, KSM vector, Xenopus oocytes; homomeric cys-loop channel; LOC number follows O. sinensis annotation
Type of test: cell-based, Octopus vulgaris. Conditions: agonist; ND96, -60 mV.

Test [2] deals with T2, DopC1 from Apis mellifera (Apis mellifera, UniProt A0A7M7R6H2).
T2 construct: gene LOC408525; full-length synthetic cDNA (GeneArt), KSM vector, Xenopus oocytes; homomeric channel
T2 sequence (A0A7M7R6H2 91-549): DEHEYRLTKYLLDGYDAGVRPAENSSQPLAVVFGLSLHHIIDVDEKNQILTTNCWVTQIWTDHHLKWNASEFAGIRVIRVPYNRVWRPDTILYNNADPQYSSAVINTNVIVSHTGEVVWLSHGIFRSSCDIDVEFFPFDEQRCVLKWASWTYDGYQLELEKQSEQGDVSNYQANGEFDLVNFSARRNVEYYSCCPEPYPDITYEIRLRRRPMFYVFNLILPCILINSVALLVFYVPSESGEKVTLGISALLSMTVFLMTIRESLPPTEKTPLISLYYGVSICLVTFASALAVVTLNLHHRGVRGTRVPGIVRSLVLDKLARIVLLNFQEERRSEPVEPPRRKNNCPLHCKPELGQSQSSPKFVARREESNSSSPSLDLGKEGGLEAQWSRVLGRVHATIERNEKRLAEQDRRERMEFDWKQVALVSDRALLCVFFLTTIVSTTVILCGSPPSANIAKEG
The test is classed as cell-based.

Test [3] addresses T3, DopC2 from Daphnia magna (Daphnia magna, UniProt A0A0P6GTI1).
T3 construct: gene APZ42_017815; cDNA cloned from adult D. magna RNA, KSM vector, Xenopus oocytes; homomeric; LOC116923538 assigned to DopC2 by printed order only (DopC1 = LOC116927457)
T3 sequence (A0A0P6GTI1 36-620): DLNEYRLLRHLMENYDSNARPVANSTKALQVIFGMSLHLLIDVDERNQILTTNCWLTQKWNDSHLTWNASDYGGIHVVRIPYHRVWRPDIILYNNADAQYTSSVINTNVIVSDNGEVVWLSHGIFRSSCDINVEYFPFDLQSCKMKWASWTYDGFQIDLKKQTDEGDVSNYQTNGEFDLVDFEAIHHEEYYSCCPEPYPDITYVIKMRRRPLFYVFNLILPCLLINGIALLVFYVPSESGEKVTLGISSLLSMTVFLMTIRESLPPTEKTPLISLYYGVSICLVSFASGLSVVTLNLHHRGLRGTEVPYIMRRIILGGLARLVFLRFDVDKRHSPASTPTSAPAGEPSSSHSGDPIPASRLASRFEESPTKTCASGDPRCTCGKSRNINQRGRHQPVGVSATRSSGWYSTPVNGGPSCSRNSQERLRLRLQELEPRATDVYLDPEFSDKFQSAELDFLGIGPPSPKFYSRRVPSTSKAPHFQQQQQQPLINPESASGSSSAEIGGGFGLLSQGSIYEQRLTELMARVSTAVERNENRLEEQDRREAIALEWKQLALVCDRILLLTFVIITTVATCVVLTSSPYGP
The test is classed as cell-based. Conditions: agonist; ND96, -60 mV.

Test [4] concerns the target T4, DopC1 from Daphnia magna (Daphnia magna, UniProt A0A0P5YVQ3).
T4 construct: cDNA cloned from adult D. magna RNA, KSM vector, Xenopus oocytes; homomeric; LOC116927457 assigned to DopC1 by printed order only (DopC2 = LOC116923538)
T4 sequence (A0A0P5YVQ3 24-503): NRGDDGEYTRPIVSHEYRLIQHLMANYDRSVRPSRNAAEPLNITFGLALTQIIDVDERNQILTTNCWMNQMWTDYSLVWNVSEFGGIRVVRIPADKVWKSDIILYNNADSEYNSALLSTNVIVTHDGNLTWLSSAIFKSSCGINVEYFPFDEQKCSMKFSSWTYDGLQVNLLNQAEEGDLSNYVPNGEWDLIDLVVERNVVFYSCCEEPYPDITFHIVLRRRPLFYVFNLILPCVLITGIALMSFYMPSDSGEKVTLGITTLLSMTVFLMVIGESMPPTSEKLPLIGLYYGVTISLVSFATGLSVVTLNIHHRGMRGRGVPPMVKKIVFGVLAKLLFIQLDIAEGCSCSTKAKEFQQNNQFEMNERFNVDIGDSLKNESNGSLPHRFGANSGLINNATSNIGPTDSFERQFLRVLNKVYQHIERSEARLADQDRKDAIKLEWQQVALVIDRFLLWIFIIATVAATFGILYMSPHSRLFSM
The test is classed as cell-based. Conditions: agonist; ND96, -60 mV.

The target in test [5] is T5, DopC1 from Aplysia californica (Aplysia californica, UniProt A0ABM0GHJ1).
T5 construct: gene LOC101853763; full-length synthetic cDNA (GeneArt), KSM vector, Xenopus oocytes; homomeric channel
T5 sequence (A0ABM0GHJ1 25-518): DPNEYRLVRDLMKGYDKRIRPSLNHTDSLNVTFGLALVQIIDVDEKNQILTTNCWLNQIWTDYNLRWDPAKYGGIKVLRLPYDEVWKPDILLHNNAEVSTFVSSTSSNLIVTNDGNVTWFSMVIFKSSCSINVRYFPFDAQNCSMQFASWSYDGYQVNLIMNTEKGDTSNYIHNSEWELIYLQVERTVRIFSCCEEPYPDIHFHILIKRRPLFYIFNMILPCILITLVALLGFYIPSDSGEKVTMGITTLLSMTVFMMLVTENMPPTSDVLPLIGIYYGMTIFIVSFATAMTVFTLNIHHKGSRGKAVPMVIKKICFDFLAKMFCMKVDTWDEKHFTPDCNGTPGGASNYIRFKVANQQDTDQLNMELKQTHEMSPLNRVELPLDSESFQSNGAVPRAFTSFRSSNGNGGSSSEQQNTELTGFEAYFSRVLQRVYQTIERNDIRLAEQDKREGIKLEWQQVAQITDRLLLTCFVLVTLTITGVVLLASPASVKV
The test is classed as cell-based.

Test [6] deals with T6, AChRB1 (O. vulgaris).
T6 construct: full-length cDNA cloned from 1-dph O. vulgaris paralarvae, KSM vector, Xenopus oocytes; expressed alone (homomeric); LOC number follows O. sinensis annotation
Type of test: cell-based, Octopus vulgaris. Conditions: agonist; ND96, -60 mV.

In test [7] the test system is T1, DopC1 (O. vulgaris). The test is classed as cell-based, Octopus vulgaris. Conditions: antagonist; against 10 µM dopamine (~EC50); ND96, -60 mV.

For `CNCC(O)c1ccc(O)c(O)c1` (racemic) [epinephrine], a half-maximal effect in test [1] (EC50) was put at 35 µM.

Take `NCC(O)c1ccc(O)c(O)c1` (racemic) [norepinephrine]: the concentration for a half-maximal effect (EC50) in test [1] was 55 µM; in test [2], 6.3 µM; in test [3], 36 µM; in test [4], 82 µM; in test [5], 8.4 µM.

`NCC(O)c1ccc(O)cc1` (racemic) [octopamine]: the EC50 in test [1] is 18000 µM.

In the case of `CC(=O)OCC[N+](C)(C)C` [acetylcholine], the midpoint of the response in test [6], the EC50, lay at 1.9 µM.

In the case of `CN1CCc2cccc3c2[C@H]1Cc1ccc(O)c(O)c1-3` [apomorphine], inhibition in test [7] was half-maximal at 7 µM (IC50).

Regarding `C[N+](C)(C)CCO` [choline], in test [6], the EC50 turned out to be 98 µM.

Turning to `NCCc1ccc(O)c(O)c1` [dopamine], the concentration giving a half-maximal response (EC50) in test [1] worked out at 7.6 µM; in test [2] it was 1.7 µM; in test [3] it was 4.6 µM; in test [4] it was 50 µM; in test [5], 3.5 µM.

In test [1], `NCCc1c[nH]c2ccc(O)cc12` [serotonin] gave a 50% effective concentration (EC50) of 73 µM.

In test [1], `NCCc1ccc(O)cc1` [tyramine] had an EC50 of 180 µM.
